Here are results for 84 substances from patent US20240091328A1, “FORMULATIONS AND METHODS FOR MHC-I RESTRICTED EPITOPE IMMUNIZATION” (The Research Foundation for The State University of New York, priority 2021, published 2024).

The assay has as its system IFN-γ. Briefly: In vivo peptide micro-library screening, IFN-γ ELISA of re-stimulated splenocytes relative to A5. The arrangement: species or system mice. The note with it: rank among 100 micro-library peptides; IFN-γ on re-stimulation relative to A5; 5 peptides plus A5 with CPQ. On the procedure: Mice were immunized with 5 library peptides at a time, along with the A5 peptide, with all peptides combined and admixed with CPQ. After two intramuscular injections, splenocytes were collected, and then re-stimulated with each of the synthetic micro-library peptides, individually. Production of IFN-γ was measured and peptide immunogenicity was determined relative to the A5 peptide, which served as in internal control that could induce strong Ag-specific CD8^+ T cell responses.
For Ag screening, multivalent vaccine composed of peptide with the same MHC-I haplotypes (H-2L^d, H-2D^d, or H-2K^d) and the internal A5 peptide were admixed with CPQ. After immunization, only ˜10% of MHC-I binding peptides induced T cells in splenocytes that produced IFN-γ with peptide re-stimulation, and none were nearly as effective as A5 (FIG. 16B). The most highly immunogenic peptides only produced about a quarter of the level of IFN-γ relative to A5. […] It is also feasible that immunization with higher antigen doses of single individual peptides could have induced stronger immunogenic responses, although this would decrease the in vivo peptide micro-library screening throughput.
IFN-γ ELISA: 2.5×10^5 splenocytes were seeded in a 96 wells plate and stimulated with 10 μg/mL antigens for 72 hr. 50 μL of supernatant was collected from each well and subjected to Interferon gamma ELISA (Thermofisher; catalog: BMS606TEN) according to manufacturer protocol.
A general note: ELISA stands for enzyme-linked immunosorbent assay.

For “H6-YYMRDVIAI-ERR (HHHHHHYYMRDVIAIERR; CT33)”, the Experimental rank came out at 96. Consider “H6-QFPSESEFF-ERR (HHHHHHQFPSESEFFERR; CT5)”, for which the Experimental rank worked out at 18. Take “H6-NALSSMGAL-ERR (HHHHHHNALSSMGALERR; CT40*)”: the Experimental rank was found to be 6. In the case of “H6-EPQIAMDDM-ERR (HHHHHHEPQIAMDDMERR; CT22)”, the Experimental rank is on record as 74. The result for “H6-IPDEAMVKL-ERR (HHHHHHIPDEAMVKLERR; CT16)” reads 33; that for “H6-PGPIKCVPI-ERR (HHHHHHPGPIKCVPIERR; CT3)”, 22; that for “H6-MPQLFMVSK-ERR (HHHHHHMPQLFMVSKERR; CT100)”, 16.

As for “H6-HYLNDGDAI-ERR (HHHHHHHYLNDGDAIERR; H6 and ERR flanks; CT25)”, the Experimental rank turned out to be 80.

Regarding “H6-RGGPKKCAL-ERR (HHHHHHRGGPKKCALERR; CT53)”, the Experimental rank amounted to 32. Turning to “H6-TGPYVMMIG-ERR (HHHHHHTGPYVMMIGERR; CT6)”, the Experimental rank is recorded as 84. In the case of “H6-SPNRRFTEM-ERR (HHHHHHSPNRRFTEMERR; CT17)”, the Experimental rank was found to be 58. As for “H6-MLARKQFDL-ERR (HHHHHHMLARKQFDLERR; CT86)”, the figure is 60. On to “H6-SYIKKLKEL-ERR (HHHHHHSYIKKLKELERR; CT29)”, for which the Experimental rank amounted to 90.

As for “H6-GFPSPLGGI-ERR (HHHHHHGFPSPLGGIERR; CT58)”, the Experimental rank is 42. As for “H6-EGPHGQPVS-ERR (HHHHHHEGPHGQPVSERR; CT54)”, the figure is 57; as for “H6-IGQMLQTHF-ERR (HHHHHHIGQMLQTHFERR; CT84)”, 49; as for “H6-SYETLKKSL-ERR (HHHHHHSYETLKKSLERR; CT7)”, 94. The result for “H6-KPYESYTEQ-ERR (HHHHHHKPYESYTEQERR; CT87)” reads 75; that for “H6-KYYAVNFSM-ERR [CT8] (HHHHHHKYYAVNFSMERR; CT8)”, 88. Consider “H6-LVPNRFSRL-ERR (HHHHHHLVPNRFSRLERR; CT45)”, for which the Experimental rank is given as 13. Consider “H6-TPPSHKLPL-ERR (HHHHHHTPPSHKLPLERR; CT55)”, for which the Experimental rank turned out to be 23. Regarding “H6-RPIKGPRNI-ERR (HHHHHHRPIKGPRNIERR; CT18)”, the Experimental rank turned out to be 47. Take “H6-TPPSIFSTQ-ERR (HHHHHHTPPSIFSTQERR; CT49)”: the Experimental rank is 73. As for “H6-GPPPHSAPC-ERR (HHHHHHGPPPHSAPCERR; H6 and ERR flanks; CT47)”, the figure is 71; as for “H6-LNYPHITNL-ERR (HHHHHHLNYPHITNLERR; CT81)”, 54; as for “H6-FFMKMASKF-ERR (HHHHHHFFMKMASKFERR; CT73)”, 78.

On to “H6-KTPEL VEAL-ERR (HHHHHHKTPELVEALERR; CT36*)”, for which the Experimental rank was 51. As for “H6-NPRAMQVLL-ERR (HHHHHHNPRAMQVLLERR; CT20)”, the figure is 38; as for “H6-LLYNAVVWL-ERR (HHHHHHLLYNAVVWLERR; CT93)”, 27. Take “H6-LYLANLRHM-ERR (HHHHHHLYLANLRHMERR; CT64)”: the Experimental rank stood at 14.

On to “H6-TYLQPAQAQ-ERR (HHHHHHTYLQPAQAQERR; CT75)”, for which the Experimental rank was 12. Consider “H6-EYEKIEIPI-ERR (HHHHHHEYEKIEIPIERR; CT68)”, for which the Experimental rank was found to be 66. Turning to “H6-SGPIGPPEI-ERR (HHHHHHSGPIGPPEIERR; CT48)”, the Experimental rank was 70. With “H6-FYTSYLRRL-ERR (HHHHHHFYTSYLRRLERR; CT74)”, the Experimental rank is given as 76. As for “H6-HHTMMVQAI-ERR (HHHHHHHHTMMVQAIERR; CT24)”, the figure is 86; as for “H6-EPQVEPLDF-ERR (HHHHHHEPQVEPLDFERR; CT15)”, 81; as for “H6-SYLRRLPGL-ERR (HHHHHHSYLRRLPGLERR; CT35)”, 100.

With “H6-SRLQSLTLI-ERR (HHHHHHSRLQSLTLIERR; CT72)”, the Experimental rank was found to be 7. As for “H6-PYFRLEHYL-ERR (HHHHHHPYFRLEHYLERR; CT27)”, the figure is 87; as for “H6-VYFTINVNL-ERR (HHHHHHVYFTINVNLERR; CT32)”, 43; as for “H6-CYVTYKGEI-ERR (HHHHHHCYVTYKGEIERR; CT9)”, 89. Take “H6-SEGNSSHTI-ERR (HHHHHHSEGNSSHTIERR; CT81) [CT80]”: the Experimental rank was found to be 31. Regarding “H6-CQIAMVHYI-ERR (HHHHHHCQIAMVHYIERR; CT61)”, the Experimental rank came out at 10. As to “H6-DSPNRRFTE-ERR (HHHHHHDSPNRRFTEERR; CT60)”, the Experimental rank is 20. With “H6-PTPRRFSPP-ERR (HHHHHHPTPRRFSPPERR; CT52)”, the Experimental rank is 24. On to “H6-KGPRNIQLD-ERR (HHHHHHKGPRNIQLDERR; CT57)”, for which the Experimental rank is reported as 48. As for “H6-PGGFQEFNF-ERR (HHHHHHPGGFQEFNFERR; CT89)”, the figure is 25; as for “H6-IPIFHILNT-ERR (HHHHHHIPIFHILNTERR; CT85)”, 8. Consider “H6-FPPQNMFEF-ERR [CT43] (HHHHHHFPPQNMFEFERR; CT43)”, for which the Experimental rank worked out at 15. As for “H6-KPFTICKYY-ERR (HHHHHHKPFTICKYYERR; CT88)”, the figure is 34; as for “H6-TPHVLWSWG-ERR (HHHHHHTPHVLWSWGERR; CT97)”, 4. As to “H6-YVYEIYMTF-ERR (HHHHHHYVYEIYMTFERR; CT98)”, the Experimental rank stood at 9.

As for “H6-GHVAAGGAL-ERR (HHHHHHGHVAAGGALERR; CT79)”, the Experimental rank stood at 46. The result for “H6-IYSRTTDVL-ERR (HHHHHHIYSRTTDVLERR; CT76)” reads 64. For the substance “H6-TYWKGNPEM-ERR (HHHHHHTYWKGNPEMERR; CT31)”, the Experimental rank is 97. On to “H6-PPQNMFEFP-ERR (HHHHHHPPQNMFEFPERR; CT82)”, for which the Experimental rank came to 67. The result for “H6-PYLTALDDL-ERR (HHHHHHPYLTALDDLERR; CT28)” reads 82; that for “H6-FPPQNMFEF-ERR [CT14] (HHHHHHFPPQNMFEFERR; CT14)”, 98; that for “H6-RKIKGPYWL-ERR (HHHHHHRKIKGPYWLERR; CT91)”, 52. In the case of “H6-DPFATPLSM-ERR (HHHHHHDPFATPLSMERR; CT21)”, the Experimental rank is given as 83. The result for “H6-RGPPPHSAP-ERR (HHHHHHRGPPPHSAPERR; H6 and ERR flanks; CT46)” reads 72. For the substance “H6-RGEYEDPYY-ERR (HHHHHHRGEYEDPYYERR; CT56)”, the Experimental rank is listed as 35. Regarding “H6-SYTSYIMAI-ERR (HHHHHHSYTSYIMAIERR; CT10)”, the Experimental rank is reported as 69.

As to “H6-FPSESEFFK-ERR (HHHHHHFPSESEFFKERR; CT83)”, the Experimental rank was determined as 26. As for “H6-TGRRRTATK-ERR (HHHHHHTGRRRTATKERR; CT59)”, the Experimental rank is given as 30. On to “H6-RTPHVLWSW-ERR (HHHHHHRTPHVLWSWERR; CT41)”, for which the Experimental rank amounted to 40.

As for “H6-KLLASALST-ERR (HHHHHHKLLASALSTERR; CT39*)”, the Experimental rank worked out at 5.

Consider “H6-RHNTMLKAM-ERR (HHHHHHRHNTMLKAMERR; CT66)”, for which the Experimental rank was 61. For the substance “H6-RYWTGIGVL-ERR (HHHHHHRYWTGIGVLERR; CT11)”, the Experimental rank stood at 92. The result for “H6-WGAWLSGAL-ERR (HHHHHHWGAWLSGALERR; CT42)” reads 28. As for “H6-SSKHRRSFV-ERR (HHHHHHSSKHRRSFVERR; CT38*)”, the Experimental rank worked out at 45. For the substance “H6-LFLKSPTAL-ERR (HHHHHHLFLKSPTALERR; CT34)”, the Experimental rank was 99. As for “H6-DPQFAENYV-ERR (HHHHHHDPQFAENYVERR; CT94)”, the figure is 55; as for “H6-GRPSIDNVL-ERR (HHHHHHGRPSIDNVLERR; CT51)”, 37.

Consider H6-SYIMAICGM-ERR [CT67], for which the Experimental rank amounted to 36.

In the case of “H6-KGPYWLEVK-ERR (HHHHHHKGPYWLEVKERR; CT44)”, the Experimental rank was 44. For “H6-KYFQAGKYE-ERR (HHHHHHKYFQAGKYEERR; CT69)”, the Experimental rank worked out at 21. As for “H6-AYVNATGEV-ERR (HHHHHHAYVNATGEVERR; CT13)”, the figure is 95; as for “H6-GPPGGFQEF-ERR [CT4] (HHHHHHGPPGGFQEFERR; CT4)”, 63; as for “H6-YYESDEFTV-ERR (HHHHHHYYESDEFTVERR; CT65)”, 17.

“H6-YGKGVNFYL-ERR (HHHHHHYGKGVNFYLERR; CT50)”: the Experimental rank amounted to 68. In the case of “H6-LGYRYWTGI-ERR (HHHHHHLGYRYWTGIERR; CT92)”, the Experimental rank is on record as 41. The result for “H6-SGPSYATYL-ERR (HHHHHHSGPSYATYLERR; CT1)” reads 62. In the case of “H6-SYQAALAEN-ERR (HHHHHHSYQAALAENERR; CT77)”, the Experimental rank was determined as 39.
